In the supplement of paper PMC10307832 one finds relative viability data, which are given here for one cell line.

Test in all cases: relative viability (nuclei count vs DMSO), 5 days (fraction); higher = more cells survive
Compound in assay [1]: CN1CCN(CC1)C2=CC(=C(C=C2)NC3=NC(=C(S3)C(=O)C4=C(C=CC=C4Cl)Cl)N)OC [XMD14-99]
The essentials:
(§1)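 Lung cancer cell lines were seeded into 1536-well plates, kept overnight at 37 °C and pinned with five library-drug doses (not always all listed) spaced by √10. After 5 days, nuclei were Hoechst-stained, imaged at 4× and counted with MetaXpress. Viability is treated-well nuclei over vehicle-well nuclei, taken as a median across plates. Plates needed control CV below 25% and at least one doubling.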

Compound in assay [2]: N[C@@H]1CCCN(c2c(/C=C3\SC(=O)NC3=O)cccc2-c2ccccc2)C1 [AZD1208]
The method in brief:
as §1

Compound in assay [3]: CN1CCN(CC1)C2=CC(=C(C=C2)NC3=NC(=C(S3)C(=O)C4=C(C=CC=C4Cl)Cl)N)OC [XMD14-99] + COc1cc2c(Oc3ccc(NC(=O)C4(C(=O)Nc5ccc(F)cc5)CC4)cc3F)ccnc2cc1OCCCN1CCOCC1 [Foretinib] (partner 0.25 µM)
The method in brief: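 Lung cancer cell lines were pin-tool dosed in 1536-well plates on the day after seeding, with either a lone drug or a fixed anchor-drug dose plus five library-drug doses (not always all listed) in √10 steps. Nuclei were counted on 4× images after 5 days. Relative viability is the ratio of treated-well to vehicle-well nuclei counts, with each value a median of duplicate plates.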

Consider UMC-11, for which the relative viability amounted to 0.968 in assay [1] (0.08 µM); 1.02 in assay [1] (0.8 µM); 1 in assay [1] (2.53 µM); 0.83 in assay [1] (8 µM); 0.85 in assay [2] (0.08 µM); 0.851 in assay [2] (0.253 µM). Also, the relative viability in assay [2] (0.8 µM) worked out at 0.713; in assay [2] (2.53 µM), 0.67; in assay [2] (8 µM) it was 0.511; in assay [3] (first compound 0.08 µM), 1.03; in assay [3] (first compound 0.8 µM), 1.02; in assay [3] (first compound 2.53 µM) it was 1.03. For the same cell line, the relative viability in assay [3] (first compound 8 µM) worked out at 0.865.
